Measurements published in ChEMBL document CHEMBL3124768, “Substituted imidazothiazoles as inhibitors of viral polymerase” (ACS Med Chem Lett, 2014).
pEC50, pIC50: −log10 of the molar value.

Key:
Hepatitis C virus = assay: Antiviral activity against Hepatitis C virus genotype 1b isolate Con1 assessed as inhibition of HCV replicon-encoded Renilla luciferase reporter activity after 72 hrs by cell-based replicon assay; assay type: functional, organism-based, Hepacivirus hominis; conditions: isolate Con1, 72 h
[1] = Inhibition of HCV genotype 1b isolate BK truncated NS5B polymerase lacking C-terminal 21 amino acids assessed as inhibition of 33P-GTP incorporation using Poly(rC) template by scintillation counting analysis; set-up: species or system Hepatitis C virus (isolate BK)

SMILES: CNC(=O)c1c(-c2ccc(F)cc2)nc2sc(-c3cc(C(=O)NC(C)(C)c4ncccn4)ccc3C)cn12
- pEC50 (Hepatitis C virus): > 6.60
- pIC50 [1]: 6.00

SMILES: CNC(=O)c1c(-c2ccc(F)cc2)nc2sc(-c3cc(C(=O)NC(C)(C)c4ccccc4)ccc3C)cn12
- pEC50 (Hepatitis C virus): > 6.60
- pIC50 [1]: > 6.60

SMILES: CNC(=O)c1c(-c2ccc(F)cc2)nc2sc(-c3cccc(C(=O)NC(C)(C)c4ccccc4)c3)cn12
- pEC50 (Hepatitis C virus): > 6.60
- pIC50 [1]: > 6.60

SMILES: CNC(=O)c1c(-c2ccc(F)cc2)nc2sc(-c3cccc(C(=O)NC4(c5ccccn5)CC4)c3)cn12
- pEC50 (Hepatitis C virus): > 6.60
- pIC50 [1]: > 6.60

SMILES: CNC(=O)c1c(-c2ccc(F)cc2)nc2sc(-c3cccc(C(=O)NC4(c5ccccc5)CC4)c3)cn12
- pEC50 (Hepatitis C virus): > 6.60
- pIC50 [1]: 6.00

SMILES: CNC(=O)c1c(-c2ccc(F)cc2)nc2sc(-c3cc(C(=O)N[C@@H](C)c4ccccc4)ccc3C)cn12
- pEC50 (Hepatitis C virus): > 6.60
- pIC50 [1]: > 6.60

SMILES: CNC(=O)c1c(-c2ccc(F)cc2)nc2sc(-c3cc(C(=O)NC(C)(C)C(=O)OC)ccc3C)cn12
- pEC50 (Hepatitis C virus): > 6.60
- pIC50 [1]: 6.00

SMILES: CNC(=O)c1c(-c2ccc(F)cc2)nc2sc(-c3cc(C(=O)NC4(C(C)C)CC4)ccc3C)cn12
- pEC50 (Hepatitis C virus): > 6.60
- pIC50 [1]: 6.00

SMILES: CNC(=O)c1c(-c2ccc(F)cc2)nc2sc(-c3cc(C(=O)NC(C)(C)c4ccccc4)ccc3OC)cn12
- pEC50 (Hepatitis C virus): > 6.60
- pIC50 [1]: > 6.60

SMILES: CNC(=O)c1c(-c2ccc(F)cc2)nc2sc(-c3cc(C(=O)NC(C)(C)c4ccccc4)c(OC)cc3C)cn12
- pEC50 (Hepatitis C virus): > 6.60
- pIC50 [1]: > 6.60
